Like-named read-outs stand apart in the source and are kept apart here.
Legend:
DA D-2 = molecular target: T1, DA D-2 (Rattus norvegicus, UniProt P61169); assay: antagonism of pergolide-induced circling behaviour in rats with unilateral 6-OHDA lesions; type: in vivo; settings: sc, read-out: Pergolide rot. inhibition ED50, 2h (sc), 6-OHDA lesions, s.c., 2 h before pergolide
T1 construct: Male Wistar rats (Mol:Wist) weighing about 200 g at the time of operation are used; from tissue; host or cells: living male Wistar (Mol:Wist) rats with unilateral 6-OHDA lesions (in vivo, endogenous receptor)
Protocol: ANTAGONISM OF PERGOLIDE-INDUCED CIRCLING BEHAVIOUR IN RATS WITH UNILATERAL 6-OHDA LESIONS
Dopamine (DA) D-2 agonists induce contralateral circling behaviour in rats with 6-OHDA lesions. Pergolide-induced circling is antagonized by DA D-2 antagonists.
Male Wistar rats (Mol:Wist) weighing about 200 g at the time of operation are used. Unilateral lesions are made in pentobarbital anaesthetized rats by injection of 6-OHDA. HCl 9.7 μg/μl (equivalent to 8 μg free base) per 4 min. into the rostral tip of the substantia nigra. The saline solution contains ascorbic acid 0.2 mg/ml, is bubbled with N2 and is kept ice-cold. The experiments are done when stable contralateral circling responses to pergolide (0.05 μmol/kg, s.c.) are obtained. The circling response is measured in rotometer bowls. Only rats showing more than 400 complete turns in 2 hrs control session are used. Dose-response curves are obtained by alternating test and control sessions on a weekly basis. The antagonists are injected s.c. 2 hrs before the agonist. The effect of individual doses of test drugs is calculated as per cent of the mean effect of control sessions one week before and one week after the test session for each rat. ED50 values are calculated by log-probit analysis. Four to eight rats are used at each dosage.

5-HT2 [1] = molecular target: T2, 5-HT2 (Rattus norvegicus, UniProt P14842); assay: quipazine inhibition (quipazine-induced head twitches in rats); type: in vivo; settings: sc, s.c. (marked in cell), 24 h before quipazine, read-out: Quipazine inhibition ED50, 24h (sc)
T2 construct: Four rats, male Wistar (Mol:Wist) SPF rats weighing 170-240 g; from tissue; host or cells: living male Wistar (Mol:Wist) SPF rats (in vivo, endogenous receptor)

[2] = Janssen 1988; cited from earlier work
[3] = animal test, Colpart et al. 1985; cited from earlier work
5-HT2 [4] = molecular target: T2, 5-HT2; assay: quipazine inhibition (quipazine-induced head twitches in rats); type: in vivo; settings: for ED50: sc, read-out: Quipazine inhibition ED50, 2h (sc), s.c., 2 h before quipazine
Protocol: Quipazine is a 5-HT2 agonist, which induces head twitches in rats. The test is a test for 5-HT2 -antagonistic effect testing the ability to inhibit head twitches. The method and test results for some reference substances are published by Arnt et al. (Drug Development Research, 16, 59-70, 1989).
Test substance is injected s.c. 2 hrs before or p.o. 24 hrs before quipazine administration (6.8 mg/kg, s.c., dimaleate). Four rats, male Wistar (Mol:Wist) SPF rats weighing 170-240 g, are used at each dose level. A control group is included each test day. By repeated testing (2, 24 hrs) the control group is the same, however. After quipazine administration the rats are individually placed in the observation cages and head twitches are counted in an observation period of 30-40 min. after injection of quipazine.
Total number of head twitches in each group is calculated and the result for each dose is expressed as per cent of the response in the control group. ED50 values are calculated by log-probit analysis. The test must be repeated if the average number of head twitches is lower than 9 in the control group.

α1 adrenoceptors = assay: inhibition of 3H-prazosin binding to α1 adrenoceptors in rat brain in vitro; settings: 3H-prazosin 0.25 nM, rat brain membranes, read-out: Binding IC50, 3H Praz.
Protocol: INHIBITION OF ^3 H-PRAZOSIN BINDING TO α1 ADRENOCEPTORS IN RAT BRAIN IN VITRO
Method and results in Hyttel and Larsen, J. Neurochem, 44, 1615-1622, 1985; Skarsfeldt and Hyttel, Eur. J. Pharmacol. 125, 323-340, 1986.
Male Wistar (Mol:Wist) rats (125-200 g) are sacrificed and brain tissue is dissected and weighed. The tissue is homogenized (Ultra Turrax, 10 sec.) in 10 ml of ice-cold […] Tris buffer pH 7.7 (at 25° C.). The homogenate is centrifuged twice at 20,000 g for 10 min. at 4° C. with rehomogenization of the pellet in 10 ml ice-cold buffer. The final pellet is homogenized in 400 vol (w/v) ice-cold buffer.
Incubation tubes kept on ice in triplicate receive 100 μl of drug solution in water (or water for total binding) and 4000 μl of tissue suspension (final tissue content corresponds to 10 mg original tissue). The binding experiment is initiated by addition of 100 μl of ^3 H-Prazosin (final concentration 0.25 nM) and by placing the tubes in a 25° C. water bath. After incubation for 20 min. the samples are filtered under vacuum (0-50 mBar) through Whatman GF/F filters (25 mm). The tubes are rinsed with 5 ml ice-cold buffer which then are poured on the filters. Thereafter, the filters are washed with 5 ml of buffer. The filters are placed in counting vials and 4 ml of appropriate scintillation fluid (e.g. Picofluor™15) are added. After shaking for 1 h and storage 2 hrs in the dark the content of radioactivity is determined by liquid scintillation counting. Specific binding is obtained by subtracting the nonspecific binding in the presence of 1 μM of Prazosin.
For determination of the inhibition of binding five concentrations of drugs covering 3 decades are used.
The measured cpm are plotted against drug concentration on semilogarithmic paper and the best fitting S-shaped curve is drawn. The IC50 value is determined as the concentration at which the binding is 50% of the total binding in control samples minus the nonspecific binding in the presence of 1 μM of Prazosin. ^3 H-Prazosin=[furoyl-5-^3 H]-Prazosin from New England Nuclear, specific activity approximately 20 Ci/mmol.

[5] = Klieser and Strauss 1988; cited from earlier work
[6] = Bersani et al. 1990; cited from earlier work

T2 sequence (P14842 whole entry): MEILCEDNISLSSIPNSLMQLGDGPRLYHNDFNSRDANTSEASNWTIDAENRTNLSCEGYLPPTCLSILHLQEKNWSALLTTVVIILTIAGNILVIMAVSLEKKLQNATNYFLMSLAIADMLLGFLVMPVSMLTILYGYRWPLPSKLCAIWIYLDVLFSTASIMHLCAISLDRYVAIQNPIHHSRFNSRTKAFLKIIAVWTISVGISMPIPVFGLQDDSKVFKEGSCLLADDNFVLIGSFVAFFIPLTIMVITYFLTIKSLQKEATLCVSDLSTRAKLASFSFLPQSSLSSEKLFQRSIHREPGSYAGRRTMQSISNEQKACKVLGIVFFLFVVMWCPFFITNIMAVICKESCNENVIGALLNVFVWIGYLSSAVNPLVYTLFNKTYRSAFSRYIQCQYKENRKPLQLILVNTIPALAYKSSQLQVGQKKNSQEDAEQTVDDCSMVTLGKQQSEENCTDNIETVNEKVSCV
T1 sequence (P61169 whole entry): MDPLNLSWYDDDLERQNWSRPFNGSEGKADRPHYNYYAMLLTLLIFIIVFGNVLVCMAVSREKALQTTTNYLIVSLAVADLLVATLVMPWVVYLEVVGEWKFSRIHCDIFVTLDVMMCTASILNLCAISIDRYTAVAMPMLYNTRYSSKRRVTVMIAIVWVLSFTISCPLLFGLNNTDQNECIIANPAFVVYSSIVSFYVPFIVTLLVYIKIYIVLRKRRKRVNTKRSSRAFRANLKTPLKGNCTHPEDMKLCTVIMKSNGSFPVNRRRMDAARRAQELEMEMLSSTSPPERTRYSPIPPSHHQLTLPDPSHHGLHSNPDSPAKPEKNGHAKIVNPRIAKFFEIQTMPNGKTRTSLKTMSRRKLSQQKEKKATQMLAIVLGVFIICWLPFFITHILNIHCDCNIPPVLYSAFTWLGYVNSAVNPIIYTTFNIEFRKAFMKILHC

Row | ED50 (5-HT2 [1]) | Compound | ED50 (DA D-2) | quality of sleep [2] | effects reminiscent of anxiolytic drug activity [3] | ED50 (5-HT2 [4]) | IC50 (α1 adrenoceptors) | antidepressant effect and depressive symptoms of schizophrenia [5] | neuroleptic-induced parkinsonism [6] | Quipazine inhibition ED50, 24h (po) (5-HT2 [4]; p.o., 24 h before quipazine)
1 | 0.98 µmol/kg | Cc1nc2sccn2c(=O)c1CCN1CCC(=C(c2ccc(F)cc2)c2ccc(F)cc2)CC1 [ritanserin] | > 21 µmol/kg | improve the quality of sleep | exert effects in an animal test reminiscent of anxiolytic drug activity | 0.08 µmol/kg | 47 nM | has been shown to be an antidepressant and to improve depressive symptoms of schizophrenia | relieve neuroleptic-induced parkinsonism | –
2 | – | O=C1NCCN1CCN1CCC(c2cn(-c3ccc(F)cc3)c3ccc(Cl)cc23)CC1 [sertindole (Lu 23-174), 5-chloro-1-(4-fluorophenyl)-3-[1-[2-(2-imidazolidinon-1-yl)ethyl]-4-piperidyl]-1H-indole, reference compound] | 7.2 µmol/kg | – | – | 0.04 µmol/kg | 3.4 nM | – | – | 0.04 µmol/kg

— US5216001A, “Indole derivatives” (H. Lunbeck A/S, priority 1990, dated 1993)
